Measurements reported in paper PMC8213057, “Targeting ALK2: An Open Science Approach to Developing Therapeutics for the Treatment of Diffuse Intrinsic Pontine Glioma” (Journal of Medicinal Chemistry, 2020).

Tests used:
CAMK4 = CAMK4 (Homo sapiens, UniProt Q16566); settings: 1 μM; Run 1, Run 2
p70S6Kb/RPS6KB2 = p70S6Kb/RPS6KB2 (Homo sapiens, UniProt Q9UBS0); test: biochemical; settings: read-out: % enzyme activity, 1 μM; Run 1, Run 2
CDK1/cyclin E = CDK1/cyclin E (Homo sapiens, UniProt P06493); test: biochemical; settings: read-out: % enzyme activity, 1 μM; Run 1, Run 2
Chain of CDK1/cyclin E (P24864 whole entry): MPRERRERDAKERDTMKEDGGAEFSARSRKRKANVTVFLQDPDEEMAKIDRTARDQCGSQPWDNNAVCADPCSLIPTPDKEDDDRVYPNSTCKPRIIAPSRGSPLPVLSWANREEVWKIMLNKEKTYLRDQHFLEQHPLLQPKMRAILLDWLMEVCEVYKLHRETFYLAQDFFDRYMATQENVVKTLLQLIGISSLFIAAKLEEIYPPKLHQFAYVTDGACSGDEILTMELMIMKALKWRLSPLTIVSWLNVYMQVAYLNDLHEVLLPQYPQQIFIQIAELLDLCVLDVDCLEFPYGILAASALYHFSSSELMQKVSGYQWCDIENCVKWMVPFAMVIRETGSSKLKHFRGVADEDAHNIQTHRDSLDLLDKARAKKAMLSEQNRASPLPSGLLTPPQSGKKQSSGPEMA
Chain of CDK1/cyclin E (P06493 whole entry): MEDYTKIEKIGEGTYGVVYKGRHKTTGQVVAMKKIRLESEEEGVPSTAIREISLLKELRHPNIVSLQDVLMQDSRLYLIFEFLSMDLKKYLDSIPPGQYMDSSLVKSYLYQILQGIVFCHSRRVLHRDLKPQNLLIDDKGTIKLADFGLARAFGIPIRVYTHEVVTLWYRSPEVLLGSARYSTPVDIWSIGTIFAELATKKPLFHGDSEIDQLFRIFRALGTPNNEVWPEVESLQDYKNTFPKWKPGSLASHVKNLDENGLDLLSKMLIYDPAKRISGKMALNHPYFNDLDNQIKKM

DCAMKL1 = target: T1, DCAMKL1 (Homo sapiens, UniProt O15075); settings: 1 μM; Run 1, Run 2
T1 sequence (O15075 1-740): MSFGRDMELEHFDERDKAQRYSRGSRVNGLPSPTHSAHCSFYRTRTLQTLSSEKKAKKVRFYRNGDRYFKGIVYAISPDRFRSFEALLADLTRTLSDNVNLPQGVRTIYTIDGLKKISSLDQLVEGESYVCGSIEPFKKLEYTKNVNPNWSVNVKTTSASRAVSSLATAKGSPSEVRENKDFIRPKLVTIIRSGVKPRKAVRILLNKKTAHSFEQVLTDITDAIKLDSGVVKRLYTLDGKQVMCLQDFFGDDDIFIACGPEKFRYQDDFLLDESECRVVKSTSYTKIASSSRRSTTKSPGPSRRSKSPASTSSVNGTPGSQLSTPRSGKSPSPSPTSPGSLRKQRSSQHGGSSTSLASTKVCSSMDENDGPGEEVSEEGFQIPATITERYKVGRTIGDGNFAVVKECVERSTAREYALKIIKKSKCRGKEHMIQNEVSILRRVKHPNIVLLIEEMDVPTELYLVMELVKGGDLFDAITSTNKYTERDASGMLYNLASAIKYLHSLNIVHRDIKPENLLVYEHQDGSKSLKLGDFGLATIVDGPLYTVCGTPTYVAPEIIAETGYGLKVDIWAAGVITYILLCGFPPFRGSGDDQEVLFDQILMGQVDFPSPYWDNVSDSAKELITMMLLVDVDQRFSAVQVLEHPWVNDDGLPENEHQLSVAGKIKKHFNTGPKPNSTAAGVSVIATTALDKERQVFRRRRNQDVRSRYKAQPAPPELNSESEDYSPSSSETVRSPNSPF

PKD2/PRKD2 = target: T2, PKD2/PRKD2 (Homo sapiens, UniProt Q9BZL6); test: biochemical; settings: read-out: % enzyme activity, 1 μM; Run 1, Run 2
T2 sequence (Q9BZL6 1-878): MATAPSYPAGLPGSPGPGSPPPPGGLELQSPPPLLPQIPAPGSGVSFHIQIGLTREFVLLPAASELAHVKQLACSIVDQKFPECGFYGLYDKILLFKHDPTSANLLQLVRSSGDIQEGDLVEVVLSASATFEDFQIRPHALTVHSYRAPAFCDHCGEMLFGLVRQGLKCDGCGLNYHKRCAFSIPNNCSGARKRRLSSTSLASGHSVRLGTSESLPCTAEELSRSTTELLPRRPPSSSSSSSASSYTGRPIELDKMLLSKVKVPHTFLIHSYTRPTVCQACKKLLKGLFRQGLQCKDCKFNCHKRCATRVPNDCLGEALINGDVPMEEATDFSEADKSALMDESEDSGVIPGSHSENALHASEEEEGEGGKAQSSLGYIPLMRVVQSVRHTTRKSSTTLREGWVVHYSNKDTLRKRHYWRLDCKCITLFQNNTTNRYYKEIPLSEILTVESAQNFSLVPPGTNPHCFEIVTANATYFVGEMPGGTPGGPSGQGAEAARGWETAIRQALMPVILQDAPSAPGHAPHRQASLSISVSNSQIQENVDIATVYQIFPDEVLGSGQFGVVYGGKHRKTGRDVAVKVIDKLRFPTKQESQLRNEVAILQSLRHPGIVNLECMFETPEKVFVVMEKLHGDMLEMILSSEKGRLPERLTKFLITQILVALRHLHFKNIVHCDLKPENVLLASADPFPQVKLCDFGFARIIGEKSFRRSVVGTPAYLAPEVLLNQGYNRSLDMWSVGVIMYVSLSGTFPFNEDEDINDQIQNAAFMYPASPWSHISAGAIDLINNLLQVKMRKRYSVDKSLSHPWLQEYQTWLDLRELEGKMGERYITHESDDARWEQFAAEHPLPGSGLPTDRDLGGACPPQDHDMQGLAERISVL

c-Src = c-Src (Homo sapiens, UniProt P12931); settings: 1 μM; Run 1, Run 2
Chain of c-Src (P12931 whole entry): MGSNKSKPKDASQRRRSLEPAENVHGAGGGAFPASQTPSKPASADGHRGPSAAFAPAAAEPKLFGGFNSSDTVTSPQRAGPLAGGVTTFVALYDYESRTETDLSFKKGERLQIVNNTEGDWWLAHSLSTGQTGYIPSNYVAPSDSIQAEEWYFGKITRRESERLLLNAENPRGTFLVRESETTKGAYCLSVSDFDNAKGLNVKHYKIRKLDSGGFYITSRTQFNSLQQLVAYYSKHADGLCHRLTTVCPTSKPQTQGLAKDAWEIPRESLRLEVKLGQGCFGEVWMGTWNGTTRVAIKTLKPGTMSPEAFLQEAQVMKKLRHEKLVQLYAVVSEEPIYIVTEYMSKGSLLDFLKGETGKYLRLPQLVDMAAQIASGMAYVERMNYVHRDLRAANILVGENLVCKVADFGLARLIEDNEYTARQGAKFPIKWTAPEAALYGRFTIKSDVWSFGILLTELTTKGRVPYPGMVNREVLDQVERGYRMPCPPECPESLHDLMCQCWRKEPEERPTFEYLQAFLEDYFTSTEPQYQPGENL

MYLK3 = target: T3, MYLK3 (Homo sapiens, UniProt Q32MK0); settings: 1 μM; Run 1, Run 2
T3 sequence (Q32MK0 1-819): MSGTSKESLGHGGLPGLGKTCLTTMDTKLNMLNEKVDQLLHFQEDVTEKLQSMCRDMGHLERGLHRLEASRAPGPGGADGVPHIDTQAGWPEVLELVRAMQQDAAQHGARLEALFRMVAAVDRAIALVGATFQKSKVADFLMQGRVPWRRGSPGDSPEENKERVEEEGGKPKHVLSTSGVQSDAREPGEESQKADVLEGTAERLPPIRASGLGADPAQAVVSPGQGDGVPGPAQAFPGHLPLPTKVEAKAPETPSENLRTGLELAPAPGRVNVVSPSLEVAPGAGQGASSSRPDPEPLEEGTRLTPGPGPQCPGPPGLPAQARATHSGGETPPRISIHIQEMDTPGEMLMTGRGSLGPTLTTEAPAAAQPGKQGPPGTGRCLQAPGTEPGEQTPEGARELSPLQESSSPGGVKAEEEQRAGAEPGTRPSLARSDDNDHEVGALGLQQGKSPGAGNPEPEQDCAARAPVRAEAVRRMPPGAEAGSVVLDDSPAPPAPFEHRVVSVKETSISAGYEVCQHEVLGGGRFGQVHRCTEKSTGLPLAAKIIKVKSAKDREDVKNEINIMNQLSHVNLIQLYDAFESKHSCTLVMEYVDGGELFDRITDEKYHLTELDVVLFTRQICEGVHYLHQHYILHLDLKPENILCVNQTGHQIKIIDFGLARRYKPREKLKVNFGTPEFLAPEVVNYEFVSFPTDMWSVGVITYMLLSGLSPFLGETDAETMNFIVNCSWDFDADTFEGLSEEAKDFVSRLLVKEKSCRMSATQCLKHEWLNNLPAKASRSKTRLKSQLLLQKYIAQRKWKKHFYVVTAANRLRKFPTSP

Chain of p70S6Kb/RPS6KB2 (Q9UBS0 whole entry): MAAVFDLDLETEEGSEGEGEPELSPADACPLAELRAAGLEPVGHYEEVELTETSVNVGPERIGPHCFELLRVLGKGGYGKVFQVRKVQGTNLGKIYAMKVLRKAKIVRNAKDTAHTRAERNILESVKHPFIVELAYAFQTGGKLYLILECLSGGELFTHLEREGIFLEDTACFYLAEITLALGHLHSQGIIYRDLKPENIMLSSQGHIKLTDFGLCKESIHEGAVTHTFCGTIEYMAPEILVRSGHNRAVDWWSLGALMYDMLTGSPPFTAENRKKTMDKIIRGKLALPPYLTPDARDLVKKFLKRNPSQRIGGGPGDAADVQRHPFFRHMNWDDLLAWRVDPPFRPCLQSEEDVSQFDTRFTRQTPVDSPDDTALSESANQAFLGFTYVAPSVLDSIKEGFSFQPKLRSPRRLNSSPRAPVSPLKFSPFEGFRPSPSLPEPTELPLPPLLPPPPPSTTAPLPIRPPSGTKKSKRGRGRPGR
Chain of CAMK4 (Q16566 whole entry): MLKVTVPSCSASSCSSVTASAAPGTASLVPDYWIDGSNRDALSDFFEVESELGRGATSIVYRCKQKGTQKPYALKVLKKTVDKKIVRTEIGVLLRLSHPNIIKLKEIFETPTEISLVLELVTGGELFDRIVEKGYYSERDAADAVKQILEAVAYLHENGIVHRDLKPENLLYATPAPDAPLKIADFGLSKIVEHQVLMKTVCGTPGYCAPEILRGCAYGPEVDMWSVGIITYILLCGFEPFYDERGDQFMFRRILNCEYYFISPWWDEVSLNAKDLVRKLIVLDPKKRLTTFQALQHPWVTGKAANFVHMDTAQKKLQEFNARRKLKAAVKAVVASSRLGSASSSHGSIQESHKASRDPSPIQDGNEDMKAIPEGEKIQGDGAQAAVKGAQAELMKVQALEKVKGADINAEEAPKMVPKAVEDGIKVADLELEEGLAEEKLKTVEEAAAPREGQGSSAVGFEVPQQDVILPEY

SMILES	% enzyme activity (CAMK4) [%]	remaining activity at 1 µM (p70S6Kb/RPS6KB2) [%]	remaining activity at 1 µM (CDK1/cyclin E) [%]	% enzyme activity (DCAMKL1) [%]	remaining activity at 1 µM (PKD2/PRKD2) [%]	% enzyme activity (c-Src) [%]	% enzyme activity (MYLK3) [%]
COc1cc(-c2cncc(-c3ccc(N4CCN(C)CC4)cc3)c2C)cc(F)c1C(N)=O [Compound 26a, 2-Fluoro-6-methoxy-4-(4-methyl-5-(4-(4-methylpiperazin-1-yl)phenyl)pyridin-3-yl)benzamide]	98.68	97.3	98.3	81.46	96.1	96.22	98.90
COc1cc(-c2cncc(-c3ccc(N4C[C@@H](C)N(C)[C@@H](C)C4)cc3)c2C)cc(F)c1C(N)=O [Compound 26c, 2-Fluoro-6-methoxy-4-(4-methyl-5-(4-((3R,5S)-3,4,5-trimethylpiperazin-1-yl)phenyl)pyridin-3-yl)benzamide]	100.90	102	92.4	85.85	99.2	97.10	99.34
